Laboratory results as given in US6908930B2, “4-substituted 7-AZA-indolin-2-ones and their use as protein kinase inhibitors” (Sugen, Inc., priority 1999, dated 2005).
pIC50: −log10 of the molar value. Structures can show the parent of a compound that is named as a salt.

What was measured:
HER-2 = target: T1, HER-2 (Homo sapiens, UniProt P04626); assay: Assay for modulation of HER-2 activity in whole cells (ELISA); format: cell-based; conditions: EGFR/HER-2chimera/#T3-C7 cell lines, EGF stimulated; read-out: HER-2 kinase IC50
T1 construct: expressed in mouse 3T3 (clone C7) cells; P00533 (Epidermal growth factor receptor)
Procedure: Using the following reagents, supplies, and method, the ability of compounds of the invention to affect the activity of HER-2 in whole cells in an ELISA format can be assigned.
EGFR/HER-2chimera/#T3-C7 cell lines are used for this assay. Choose dishes having 80-90% confluence for the experiment. Collect cells by trypsinization and centrifuge at 1000 rpm at room temperature for 5 minutes.
Resuspend cells in starve medium and count with trypan blue. Only viability above 90% is acceptable. Seed cells in starve medium at a density of 2,500 cells per well, 90 μL per well, in a 96 well microtiter plate. Incubate seeded cells in 5% CO2 at 37° C. overnight. Start the assay two days after seeding.
Samples are diluted directly into a polypropylene plate containing starve-DMEM (non-sterile is okay). This dilution will be 1:10 or greater, depending on the samples being screened. The same amount of DMSO is put into the control wells. […] are then transferred to the cell plate at a 1:10 dilution (10 μL of sample and media into 90 μL of starve media). The final DMSO concentration will be 1% or lower.
Ten samples are put into wells 2-11 of row A of the NUNC 96 well polypropylene plate. These wells contain straight starve-DMEM. For a 1:10 dilution, one would put 10 μL of drug into 90 μL of media. The rest of the wells (including the controls) will have a DMSO/media mixture. The percentage of DMSO in this mixture is determined by the first dilution factor, in this case 1:10. The DMSO concentration is therefore 10%. An equal amount of drug and media from row A is put into row B, containing DMSO and media. The same amount is then taken out and put into row C. This is repeated for all rows. These are 1:2 dilutions. All wells are then transferred to the cell plate at a 1:10 dilution (10 μL of sample and media into 90 μL of starve-DMEM. The final DMSO concentration will be 1% or lower. […]
After a 2 hour incubation with the drug, add prepared EGF ligand to cells at 50 μL per well, for a final concentration of 50 nM. Positive control wells (8) receive the same amount of EGF. […] Incubate at 37° C. for 10 minutes.
Remove drug, EGF, and DMEM by dumping in sink. Wash cells once with PBS.
Transfer HNTG* to cells, 100 μL per well. Place on ice for 5 minutes. Meanwhile, remove blocking buffer from ELISA plate and wash as described above. With a pipette tip securely fitted to a micropipettor, scrape cells from plate and homogenize cell material by repeatedly aspirating and dispensing the HNTG* lysis buffer. Transfer lysate to a coated, blocked, washed ELISA plate. Alternatively, one may use a Costar transfer cartridge to transfer lysate to the ELISA plate. Incubate, shaking, at room temperature for one hour.
Remove lysate by dumping in sink, then wash as described earlier. Transfer freshly diluted anti-phosphotyrosine (anti-Ptyr) antibody (1:3000 in TEST) to ELISA plate, 100 μL per well. Incubate, shaking, at room temperature, for 30 minutes.
Remove anti-Ptyr antibody by dumping in sink, then wash as described earlier. Transfer freshly diluted BIOSOURCE antibody to ELISA plate, (1:8000 in TEST), 100 μL per well. Incubate, shaking, at room temperature for 30 minutes.
Remove BIOSOURCE antibody by dumping in sink, then wash as described earlier. Transfer freshly prepared ABTS/H2O2 solution to ELISA plate, […]. Incubate 5-10 minutes while shaking. Remove any bubbles and if necessary, stop reaction with the addition of 100 μL of 0.2 M HCl per well.
Read assay on Dynatech MR7000 ELISA reader. Test Filter: […]; Reference Filter: […]. A preferred template for the placement of controls in this experiment is provided below: […]

PDGFR = target: T2, PDGFR (Homo sapiens, UniProt P09619); assay: Assay for modulation of PDGFR activity (ELISA); format: biochemical; conditions: for pIC50: read-out: bio PDGFR IC50
T2 construct: expressed in transfected cells; host or cells: NIH3T3
Procedure: Using the following reagents, supplies, and methods, the ability of the compounds of the invention to modulate the in vitro activity of the PDGFR can be readily determined in an enzyme-linked immunosorbent assay (ELISA).
Monoclonal anti-PDGFR antibody (28D4C10) is stored at −20° C. in 50 mL tubes prior to use.
Lysates from PDGFR-β expressing NIH3T3 cells are obtained and stored at −80° C. in 1 mL aliquots. PDGFR-β expression in eukaryotic cells is well known in the art. Lysates are prepared by the following method. Place carrier dishes in ice trays, and after cooling, remove the media and replace with ice cold PBS. Remove the PBS and repeat. […] Take up lysate with a pipettor and add to a 30 mL centrifuge tube on ice. Vortex the tubes for 30-60 seconds and then centrifuge for 10 minutes at 7000 rpm in a J-20 rotor which has been precooled to below 0° C. Recover the supernatants and combine them in a 250 mL tube and place on ice. Perform protein determination to measure the total quantity of protein per mL of solution. Aliquot the lysate into 1 mL fractions and store at −80° C.
Coat Corning 96 well ELISA plates with 0.5 μg per well 28D4C10 antibody in a volume of 100 μl PBS overnight, at 4° C. and remove unbound antibody, 28D4C10, from wells by inverting plate to remove liquid. Wash 1× with distilled H2O by filling wells. Pat the plate on a paper towel to remove excess liquid.
Add 150 μL of Blocking Buffer to each well. Incubate for 30 minutes at room temperature, with shaking and wash plate 3× with deionized water, then once with TBST. Pat plate on a paper towel to remove excess liquid and bubbles
Dilute lysate in PBS (10 mg lysate/100 μL PBS). Add 100 μL of diluted lysate to each well. Shake at room temperature for 60 min. Wash plate 3× with deionized water, then once with TBST. Pat plate on a paper towel to remove excess liquid and bubbles.
Add 80 μL Kinase Buffer to ELISA plate containing captured PDGFR.
Dilute drugs/extracts 1:10 (unless specified otherwise) in TBS+10% DMSO in 96-well polypropylene plates. (i.e., 10 μL compound+90 μL (TBS+10% DMSO)). Add 10 μL diluted drugs/extracts to ELISA plate. […] Incubate for 30 minutes while shaking at room temperature.
After 30 minutes stop reaction with addition of 10 μL of 200 mM EDTA pH 8.0 for 20 mM final in well. Wash 4× with deionized water, twice with TBST.
Incubate 30-45 minutes at room temperature, with shaking. Wash plate 3× with deionized water, then once with TBST. Pat plate on a paper towel to remove excess liquid and bubbles.
Incubate 30 minutes at room temperature with shaking. Wash plate 3× with deionized water, then once with TBST. Pat plate on a paper towel to remove excess liquid and bubbles.
Add 100 μL of ABTS/H2O2 solution to each well. Incubate 10 to 30 minutes while shaking. Remove any bubbles. If necessary stop reaction with the addition of 100 μL of 0.2M HCl per well
Read assay on Dynatech MR7000 ELISA reader.

T2 sequence (P09619 33-1106, species assumed): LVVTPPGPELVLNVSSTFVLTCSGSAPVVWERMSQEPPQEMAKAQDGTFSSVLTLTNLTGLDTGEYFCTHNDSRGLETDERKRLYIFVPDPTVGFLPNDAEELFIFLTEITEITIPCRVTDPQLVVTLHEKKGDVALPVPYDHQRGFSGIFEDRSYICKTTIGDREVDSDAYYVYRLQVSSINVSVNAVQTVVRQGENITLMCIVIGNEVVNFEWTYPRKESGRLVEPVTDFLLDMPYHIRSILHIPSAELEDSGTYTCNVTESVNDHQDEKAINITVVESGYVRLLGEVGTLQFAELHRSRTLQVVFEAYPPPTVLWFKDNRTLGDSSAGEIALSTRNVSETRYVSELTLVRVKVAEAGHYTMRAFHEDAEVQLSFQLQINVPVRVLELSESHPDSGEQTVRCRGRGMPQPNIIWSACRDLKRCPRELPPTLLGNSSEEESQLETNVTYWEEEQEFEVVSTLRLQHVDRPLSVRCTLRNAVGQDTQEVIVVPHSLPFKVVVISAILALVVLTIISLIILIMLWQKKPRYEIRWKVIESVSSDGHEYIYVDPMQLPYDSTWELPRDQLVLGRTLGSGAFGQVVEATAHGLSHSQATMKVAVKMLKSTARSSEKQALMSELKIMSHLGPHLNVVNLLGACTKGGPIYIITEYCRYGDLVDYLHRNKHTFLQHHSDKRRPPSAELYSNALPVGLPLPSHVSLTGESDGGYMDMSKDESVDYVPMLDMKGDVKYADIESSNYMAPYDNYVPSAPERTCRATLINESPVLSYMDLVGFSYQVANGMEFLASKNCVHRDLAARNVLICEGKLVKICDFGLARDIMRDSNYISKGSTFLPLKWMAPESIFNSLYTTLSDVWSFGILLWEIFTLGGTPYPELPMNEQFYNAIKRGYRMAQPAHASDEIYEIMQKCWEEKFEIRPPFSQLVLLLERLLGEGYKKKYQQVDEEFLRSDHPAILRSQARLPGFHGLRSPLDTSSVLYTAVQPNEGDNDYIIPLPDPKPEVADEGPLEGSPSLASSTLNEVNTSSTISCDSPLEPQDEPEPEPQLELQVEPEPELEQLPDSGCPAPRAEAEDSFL
T1 sequence (P04626 720-987 limits assumed): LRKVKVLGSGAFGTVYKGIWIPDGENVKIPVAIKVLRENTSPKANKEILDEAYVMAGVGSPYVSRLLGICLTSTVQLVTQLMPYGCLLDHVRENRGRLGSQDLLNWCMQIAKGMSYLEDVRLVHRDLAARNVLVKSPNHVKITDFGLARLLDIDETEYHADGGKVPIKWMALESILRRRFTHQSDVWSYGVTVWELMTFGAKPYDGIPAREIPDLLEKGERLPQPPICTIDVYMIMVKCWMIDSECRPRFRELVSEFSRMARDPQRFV

Compound	pIC50 (HER-2)	pIC50 (PDGFR)	effect on the activity of PDGFR (in words) (PDGFR; hydrochloride salt)
Cc1nc[nH]c1C=C1C(=O)Nc2ncnc(N3CCOCC3)c21 [Formula 14]	< 4.00	< 4.00	–
C#Cc1cccc(Nc2ncnc3c2C(=Cc2ccc(C(=O)NCCN4CCOCC4)[nH]2)C(=O)N3)c1 [Formula 16, 5-[4-(3-ETHYNYL-PHENYLAMINO)-6-OXO-6,7-DIHYDRO-PYRROLO[2,3-D]PYRIMIDIN-5-YLIDENEMETHYL]-1H-PYRROLE-2-CARBOXYLIC ACID (2-MORPHOLIN-4-YL-ETHYL)-AMIDE HYDROCHLORIDE]	5.99	< 4.70	–
C#Cc1cccc(Nc2ncnc3c2C(=Cc2[nH]c(C(=O)NCCN4CCOCC4)cc2C)C(=O)N3)c1 [Formula 17, 5-[4-(3-ETHYNYL-PHENYLAMINO)-6-OXO-6,7-DIHYDRO-PYRROLO[2,3-D]PYRIMIDIN-5-YLIDENEMETHYL]-4-METHYL-1H-PYRROLE-2-CARBOXYLIC ACID (2-MORPHOLIN-4-YL-ETHYL)-AMIDE]	7.00	< 4.70	–
Cc1cc(C(=O)NCCN2CCOCC2)[nH]c1C=C1C(=O)Nc2nccc(Nc3ccc(F)c(Cl)c3)c21 [Formula 3, 5-[4-(3-CHLORO-4-FLUORO-PHENYLAMINO)-2-OXO-1,2-DIHYDRO-PYRROLO[2,3-B]PYRIDIN-3-YLIDENEMETHYL]-4-METHYL-1H-PYRROLE-2-CARBOXYLIC ACID (2-MORPHOLIN-4-YL-ETHYL)-AMIDE]	6.57	< 4.00	–
Cc1cc(C(=O)NCCN2CCOCC2)[nH]c1C=C1C(=O)Nc2ncnc(Nc3ccc(F)c(Cl)c3)c21 [Formula 4, 5-[4-(3-CHLORO-4-FLUORO-PHENYLAMINO)-6-OXO-6,7-DIHYDRO-PYRROLO[2,3-D]PYRIMIDIN-5-YLIDENEMETHYL]-4-METHYL-1H-PYRROLE-2-CARBOXYLIC ACID (2-MORPHOLIN-4-YL-ETHYL)-AMIDE HYDROCHLORIDE]	6.80	< 4.00	–
O=C1Nc2ncnc(Nc3ccc4c(ccn4Cc4ccccc4)c3)c2C1=Cc1ccc(C(=O)NCCN2CCOCC2)[nH]1 [Formula 12, 5-[4-(1-BENZYL-1H-INDOL-5-YLAMINO)-6-OXO-6,7-DIHYDRO-PYRROLO[2,3-D]PYRIMIDIN-5-YLIDENEMETHYL]-1H-PYRROLE-2-CARBOXYLIC ACID (2-MORPHOLIN-4-YL-ETHYL)-AMIDE HYDROCHLORIDE]	6.55	< 4.00	–
Cc1cc(C(=O)NCCN2CCOCC2)[nH]c1C=C1C(=O)Nc2ncnc(Nc3ccc4c(ccn4Cc4ccccc4)c3)c21.Cl [Formula 6, 5-[4-(1-BENZYL-1H-INDOL-5-YLAMINO)-6-OXO-6,7-DIHYDRO-PYRROLO[2,3-D]PYRIMIDIN-5-YLIDENEMETHYL]-4-METHYL-1H-PYRROLE-2-CARBOXYLIC ACID (2-MORPHOLIN-4-YL-ETHYL)-AMIDE HYDROCHLORIDE]	6.89	< 4.00	relatively little effect on the activity of PDGFR
Cc1nc[nH]c1C=C1C(=O)Nc2ncnc(N3CCN(C)CC3)c21 [Formula 11]	< 4.00	4.55	–
Cc1nc[nH]c1C=C1C(=O)Nc2ncnc(Nc3ccc(F)c(Cl)c3)c21 [Formula 8]	7.00	4.79	–
Cc1cc(C(=O)NCCN2CCOCC2)[nH]c1C=C1C(=O)Nc2ncnc(N3CCN(C)CC3)c21 [Formula 10, 4-METHYL-5-[4-(4-METHYL-PIPERAZIN-1-YL)-6-OXO-6,7-DIHYDRO-PYRROLO[2,3-D]PYRIMIDIN-5-YLIDENEMETHYL]-1H-PYRROLE-2-CARBOXYLIC ACID (2-MORPHOLIN-4-YL-ETHYL)-AMIDE]	< 4.00	< 4.00	–
Cc1c(C(=O)N2CCOCC2)c[nH]c1/C=C1\C(=O)Nc2ncnc(Nc3ccc(F)c(Cl)c3)c21 [Formula 31]	6.43	< 4.70	–
O=C1Nc2ncnc(N3CCOCC3)c2C1=Cc1ccc(C(=O)NCCN2CCOCC2)[nH]1 [Formula 13, 5-(4-MORPHOLIN-4-YL-6-OXO-6,7-DIHYDRO-PYRROLO[2,3-D]PYRIMIDIN-5-YLIDENEMETHYL)-1H-PYRROLE-2-CARBOXYLIC ACID (2-MORPHOLIN-4-YL-ETHYL)-AMIDE]	< 4.00	< 4.00	–
Cc1[nH]c(C=C2C(=O)Nc3ncnc(Nc4ccc(F)c(Cl)c4)c32)c(C)c1CCCN1CCOCC1 [Formula 7, 4-(3-CHLORO-4-FLUORO-PHENYLAMINO)-5-[3,5-DIMETHYL-4-(3-MORPHOLIN-4-YL-PROPYL)-1H-PYRROL-2-YLMETHYLENE]-5,7-DIHYDRO-PYRROLO[2,3-D]PYRIMIDIN-6-ONE HYDROCHLORIDE]	7.40	4.07	–
O=C1Nc2ncnc(N3CCCCC3)c2C1=Cc1ccc(C(=O)NCCN2CCOCC2)[nH]1 [Formula 5, 5-(6-OXO-4-PIPERIDIN-1-YL-6,7-DIHYDRO-PYRROLO[2,3-D]PYRIMIDIN-5-YLIDENEMETHYL)-1H-PYRROLE-2-CARBOXYLIC ACID (2-MORPHOLIN-4-YL-ETHYL)-AMIDE]	4.21	< 4.00	–
Cc1cc(C(=O)N2CCN(C)CC2)[nH]c1/C=C1\C(=O)N(C)c2ncnc(Nc3ccc(F)c(Cl)c3)c21 [Formula 36]	< 4.70	< 4.70	–
O=C1Nc2ncnc(Nc3ccc(F)c(Cl)c3)c2C1=Cc1ccc(C(=O)NCCN2CCOCC2)[nH]1 [Formula 15, 5-[4-(3-CHLORO-4-FLUORO-PHENYLAMINO)-6-OXO-6,7-DIHYDRO-PYRROLO[2,3-D]PYRIMIDIN-5-YLIDENEMETHYL]-1H-PYRROLE-2-CARBOXYLIC ACID (2-MORPHOLIN-4-YL-ETHYL)-AMIDE]	6.89	< 4.00	–
Cc1cc(C(=O)N2CCOCC2)[nH]c1/C=C1\C(=O)N(C)c2ncnc(Nc3ccc(F)c(Cl)c3)c21 [Formula 34]	< 4.70	< 4.70	–
